Source: PMC3898838, “Design, Synthesis, and Biological Evaluation of an Allosteric Inhibitor of HSET that Targets Cancer Cells with Supernumerary Centrosomes” (Chemistry & Biology, 2013)

How the values were obtained:
N1E-115 cells [1] = assay: Immunofluorescence, mitotic spindle morphology; type: cell-based, mouse; conditions: 2.5 hr, control 30%
Excerpt: Using IF, we next examined the mitotic phenotypes induced by CW069 in N1E-115 and NHDF cells, with a strong focus on centrosome numbers and mitotic spindle morphology. Antibodies against α-tubulin, CDK5RAP2, and DAPI were employed to visualize MTs, centrosomes, and DNA, respectively. We hypothesized that small-molecule inhibition of HSET would give rise to mitotic spindle defects similar to those reported after HSET knockdown by siRNA transfection ([Kwon et al., 2008]), and this was indeed the case. […] After treatment, the N1E-115 cells formed multipolar spindles due to a lack of centrosome clustering, consistent with HSET inhibition in cells with supernumerary centrosomes (Figure 4C).
[…] Prewarmed 4% paraformaldehyde in PBS was then added to each well to fix the cells before washing with PBS. Permeabilization and blocking was performed by incubating the slides with 1% BSA, 0.3% Triton X-100, 5% goat serum in PBS (PBS/B/0.3%T+5%GS) for 1 hr while shaking them at room temperature (RT). The slides were incubated with primary antibody solutions (mouse monoclonal anti-α-Tubulin [catalog number T9026; Sigma-Aldrich] and rabbit anti-CDK5RAP2 [catalog number A300-554A; Bethyl Laboratories]) at 4°C for 16 hr. […]

BT549 cells = assay: Immunofluorescence, mitotic spindle morphology; type: cell-based, human; conditions: BT549, 100 μM and 200 μM, 2.5 hr
Experimental: (§1) […] Prewarmed 4% paraformaldehyde in PBS was then added to each well to fix the cells before washing with PBS. Permeabilization and blocking was performed by incubating the slides with 1% BSA, 0.3% Triton X-100, 5% goat serum in PBS (PBS/B/0.3%T+5%GS) for 1 hr while shaking them at room temperature (RT). The slides were incubated with primary antibody solutions (mouse monoclonal anti-α-Tubulin [catalog number T9026; Sigma-Aldrich] and rabbit anti-CDK5RAP2 [catalog number A300-554A; Bethyl Laboratories]) at 4°C for 16 hr. The slides were washed four times with PBS/B/0.3%T+5%GS and then incubated with secondary antibody solutions (anti-rabbit IgG Alexa Fluor 488 [catalog number A21206] and anti-mouse IgG Alexa Fluor 647 [catalog number A20990]; Invitrogen) and DAPI (catalog number D3571; Invitrogen) in deionized water (300 nM) in the dark at RT for 1 hr. After four washes with PBS/B/0.3%T+5%GS, the solution was replaced with PBS and the slides were stored at 4°C until imaging was performed. Images were gathered with the use of an ICys Research Imaging Cytometer (CompuCyte) or a tandem confocal microscope (Leica).
(§2) (1 picture or pasted object on this page, not shown here)

MCF-7 cells = assay: Immunofluorescence, mitotic spindle morphology; type: cell-based, human; conditions: MCF-7, 100 μM and 200 μM, 2.5 hr
Experimental: as §1, §2

MDA-MB-231 cells = assay: Immunofluorescence, mitotic spindle morphology; type: cell-based, human; conditions: MDA-MB-231, 100 μM and 200 μM, 2.5 hr
Experimental: as §1, §2

N1E-115 cells [2] = assay: Time-lapse microscopy, mitotic fate; type: cell-based, mouse
Experimental: Therefore, we interrogated cell division in N1E-115 cells using time-lapse imaging for further validation of target engagement. Treatment with 200 μM CW069 did indeed induce multipolar anaphase formation in N1E-115 cells (48%; Figure 5A) compared with the DMSO control (0%; Figure 5A). […] This is consistent with a previous report that catastrophic aneuploidy associated with multipolar divisions prompted cell death ([Kwon et al., 2008]). In order to corroborate selective inhibition of HSET by CW069 in cells, we treated HSET siRNA-depleted cells with 200 μM CW069 and compared them with DMSO/control siRNA-, DMSO/HSET siRNA-, and CW069/control siRNA-treated cells (Figure 5D).
Cells were synchronized in G2-M by incubation at 37°C and 5% CO2 for 24 hr with 9 μM of the CDK1 inhibitor RO-3306 (Merck). Cells were released by removal of the RO-3306 and four washings of 10 min each, at 37°C, with prewarmed culture media + 10% FBS. N1E-115 cells were transfected with siRNA (Supplemental Experimental Procedures) and imaged from 6 hr after transfection. Some RO-3306-synchronized cells were released with 200 μM CW069, 100 μM monastrol, or 0.2% DMSO, and imaging started immediately or 1 hr after treatment. Imaging was carried out for 24 hr, or for 4 hr in the case of the CW069/monastrol cotreatment. Imaging was conducted every 5 min in a humidified chamber with 37°C and 5% CO2, using a Nikon Eclipse TE2000-E microscope, and analyzed with NIS-Elements software (Nikon, Tokyo, Japan). The morphology of cells in mitosis and the mitotic fate (bipolar division, multipolar division, or cell death) were analyzed.

HeLa cells = assay: Time-lapse video microscopy, mitotic duration, arrest and exit; type: cell-based, human; conditions: 200 μM CW069, 100 μM monastrol
Experimental: HSET is known to antagonize the activity of the related kinesin, KSP, during spindle formation ([Mountain et al., 1999]). Therefore, we used time-lapse video microscopy to investigate whether CW069-treated cells transit mitosis with normal kinetics, and whether the characteristic mitotic arrest induced by inhibition of KSP ([Mayer et al., 1999]) could be suppressed by cotreatment with CW069. To this end, HeLa cells were treated with either DMSO control (0.2%), 200 μM CW069, 100 μM monastrol, or CW069+monastrol for 60 min before being imaged every 5 min for a further 360 min. Mitotic duration (MD) was defined as the period of time between when the cells began to round up and the onset of anaphase. No statistical difference was recorded between control cells and cells treated with 200 μM CW069 (MD 55 ± 7 and 53 ± 6 min, respectively, Figures 6A, 6B, and S7). […] This effect was reversed to a large extent by cotreatment of CW069 with monastrol. […] This is consistent with observations previously reported for KSP-depleted cells ([Mountain et al., 1999]). […] Cells were synchronized in G2-M by incubation at 37°C and 5% CO2 for 24 hr with 9 μM of the CDK1 inhibitor RO-3306 (Merck). Cells were released by removal of the RO-3306 and four washings of 10 min each, at 37°C, with prewarmed culture media + 10% FBS. N1E-115 cells were transfected with siRNA (Supplemental Experimental Procedures) and imaged from 6 hr after transfection. Some RO-3306-synchronized cells were released with 200 μM CW069, 100 μM monastrol, or 0.2% DMSO, and imaging started immediately or 1 hr after treatment. Imaging was carried out for 24 hr, or for 4 hr in the case of the CW069/monastrol cotreatment. Imaging was conducted every 5 min in a humidified chamber with 37°C and 5% CO2, using a Nikon Eclipse TE2000-E microscope, and analyzed with NIS-Elements software (Nikon, Tokyo, Japan). The morphology of cells in mitosis and the mitotic fate (bipolar division, multipolar division, or cell death) were analyzed.

[3] = >200 cells that entered mitosis >60 min after treatment

For `O=C(O)c1cc(I)ccc1NC(=O)[C@H](Cc1ccccc1)NCc1ccccc1` [CW069], the multipolar spindle formation (N1E-115 cells [1]; N1E-115, 100 μM) was 98%, the multipolar spindle formation (N1E-115 cells [1]; N1E-115, 200 μM) was 86% and the multipolar spindles (BT549 cells) was “increased multipolar spindles”. For the same compound, the bipolar spindle formation (MCF-7 cells) was “did not perturb bipolar spindle formation”, the multipolar spindles (MDA-MB-231 cells) was “small but significant increase in multipolar spindles” and the “fate of daughter cells after aberrant divisions” value (N1E-115 cells [2]; N1E-115, 200 μM) was “the majority of daughter cells underwent apoptosis”. For the same compound, the multipolar anaphase formation (N1E-115 cells [2]; N1E-115, 200 μM CW069, DMSO control 0% (Figure 5A)) was 48%, the multipolar anaphases (N1E-115 cells [2]; N1E-115, siRNA plus 200 μM CW069 or DMSO, DMSO/control siRNA 11% (Figure 5D)) was 57% and the “Mitotic Arrest (%)” value (HeLa cells; [3]) was 4%. The “Mitotic Exit (%)” value (HeLa cells; [3]) was 96% and the “Mitotic duration (MD)” value (HeLa cells; rounding up to anaphase onset, cells transiting mitosis) was 53 ± 6 min.
